≈ marks a conversion by molar mass, not a printed value. Like-named read-outs stand apart in the source and are kept apart here.
Key:
E. coli strains = assay: CLSI overnight reference method, broth microdilution MIC; assay type: cell-based; settings: for MIC (CLSI Ref): unit assumed
P. aeruginosa = assay: Rapid AST by surface binding of europium probe, time resolved fluorescence; assay type: cell-based; settings: Pseudomonas aeruginosa
Description: The x-axis of each graph denotes the concentrations of antimicrobial Amikacin (AMK) in micrograms/milliliter, and the y-axis denotes fluorescence from binding to bacteria surface. Growth check data measured by optical density (Absorbance at 600 nm) of the bacterial culture is denoted for each strain.
AST was performed by surface binding of probe followed by time resolved fluorescence. The P. aeruginosa strains were incubated at 35° C. in shaking conditions for 4 hours for attaining growth, and growth check was performed by measuring absorbance of the culture at 600 nm after 4 hours of growth.

[1] = E. coli strain Clinical Sample 1
[2] = E. coli strain Clinical Sample 2
[3] = E. coli strain Clinical Sample 4
[4] = E. coli strain Clinical Sample 5
[5] = E. coli strain Clinical Sample 6
[6] = E. coli strain Clinical Sample 7
[7] = E. coli strain Clinical Sample 8
[8] = E. coli strain Clinical Sample 9
[9] = E. coli strain Clinical Sample 10
[10] = E. coli strain Clinical Sample 11
[11] = E. coli strain Clinical Sample 12
[12] = E. coli strain Clinical Sample 13

| Molecule | MIC (CLSI Ref) (E. coli strains; E. coli strain BEI 4.097) [µg/mL] | MIC (CLSI Ref) (E. coli strains; E. coli strain CDC Carba36) [µg/mL] | MIC (CLSI Ref) (E. coli strains; [1]) [µg/mL] | MIC (CLSI Ref) (E. coli strains; [2]) [µg/mL] | MIC (CLSI Ref) (E. coli strains; [3]) [µg/mL] | MIC (CLSI Ref) (E. coli strains; [4]) [µg/mL] | MIC (CLSI Ref) (E. coli strains; [5]) [µg/mL] | MIC (CLSI Ref) (E. coli strains; [6]) [µg/mL] | MIC (CLSI Ref) (E. coli strains; [7]) [µg/mL] | MIC (CLSI Ref) (E. coli strains; [8]) [µg/mL] | MIC (CLSI Ref) (E. coli strains; [9]) [µg/mL] | MIC (CLSI Ref) (E. coli strains; [10]) [µg/mL] | MIC (CLSI Ref) (E. coli strains; [11]) [µg/mL] | MIC (CLSI Ref) (E. coli strains; [12]) [µg/mL] | MIC (P. aeruginosa; P. aeruginosa Strain 1, growth check value 2.18, 4 hours at 35° C., read-out: MIC) [µg/mL] | MIC (P. aeruginosa; P. aeruginosa Strain 2, no reliable MIC at growth checkpoint value 1.13, read-out: expected MIC) [µg/mL] | Interpretation letter (E. coli strains; [2]) |
| --- | --- | --- | --- | --- | --- | --- | --- | --- | --- | --- | --- | --- | --- | --- | --- | --- | --- |
| NCC[C@H](O)C(=O)N[C@@H]1C[C@H](N)[C@@H](O[C@H]2O[C@H](CN)[C@@H](O)[C@H](O)[C@H]2O)[C@H](O)[C@H]1O[C@H]1O[C@H](CO)[C@@H](O)[C@H](N)[C@H]1O [AMK, Amikacin] | 4 (≈ 6.83 µM) | 4 (≈ 6.83 µM) | 4 (≈ 6.83 µM) | 4 (≈ 6.83 µM) | 4 (≈ 6.83 µM) | 4 (≈ 6.83 µM) | 4 (≈ 6.83 µM) | 2 (≈ 3.42 µM) | 4 (≈ 6.83 µM) | 4 (≈ 6.83 µM) | 8 (≈ 13.7 µM) | 4 (≈ 6.83 µM) | 4 (≈ 6.83 µM) | 4 (≈ 6.83 µM) | 8 (≈ 13.7 µM) | 8 (≈ 13.7 µM) | – |
| CC1(C)S[C@@H]2[C@H](NC(=O)[C@H](N)c3ccccc3)C(=O)N2[C@H]1C(=O)O [AMP, Ampicillin] | 4 (≈ 11.4 µM) | > 32 | 4 (≈ 11.4 µM) | > 32 | > 32 | > 32 | 4 (≈ 11.4 µM) | > 32 | > 32 | > 32 | > 32 | 4 (≈ 11.4 µM) | 4 (≈ 11.4 µM) | > 32 | – | – | – |
| C[C@H]1[C@H](NC(=O)/C(=N\OC(C)(C)C(=O)O)c2csc(N)n2)C(=O)N1S(=O)(=O)O [ATM, Aztreonam] | < 0.25 | 8 (≈ 18.4 µM) | < 0.25 | 0.5 (≈ 1.15 µM) | < 0.25 | < 0.25 | < 0.25 | < 0.25 | 64 (≈ 147 µM) | 32 (≈ 73.5 µM) | < 0.25 | < 0.25 | < 0.25 | < 0.25 | – | – | – |
| CC(C)(O/N=C(\C(=O)N[C@@H]1C(=O)N2C(C(=O)[O-])=C(C[n+]3ccccc3)CS[C@H]12)c1csc(N)n1)C(=O)O [CAZ, Ceftazidime] | 0.25 (≈ 0.457 µM) | 4 (≈ 7.32 µM) | 0.25 (≈ 0.457 µM) | 2 (≈ 3.66 µM) | 0.25 (≈ 0.457 µM) | 0.25 (≈ 0.457 µM) | 0.12 (≈ 0.22 µM) | 0.25 (≈ 0.457 µM) | > 32 | > 32 | 0.12 (≈ 0.22 µM) | 0.25 (≈ 0.457 µM) | 0.12 (≈ 0.22 µM) | 0.12 (≈ 0.22 µM) | – | – | – |
| CO/N=C(\C(=O)N[C@@H]1C(=O)N2C(C(=O)O)=C(CSc3nc(=O)c(=O)[nH]n3C)CS[C@H]12)c1csc(N)n1 [CRO, Ceftriaxone] | < 0.12 | 1 (≈ 1.8 µM) | < 0.12 | 2 (≈ 3.61 µM) | < 0.12 | < 0.12 | < 0.12 | < 0.12 | 64 (≈ 115 µM) | > 64 | < 0.12 | < 0.12 | < 0.12 | < 0.12 | – | – | I |
| C[C@@H](O)[C@H]1C(=O)N2C(C(=O)O)=C(S[C@@H]3CN[C@H](C(=O)Nc4cccc(C(=O)O)c4)C3)[C@H](C)[C@H]12 [ERT, Ertapenem] | 0.008 (≈ 0.0168 µM) | 0.12 (≈ 0.252 µM) | 0.008 (≈ 0.0168 µM) | 0.015 (≈ 0.0315 µM) | 0.008 (≈ 0.0168 µM) | 0.008 (≈ 0.0168 µM) | 0.008 (≈ 0.0168 µM) | 0.008 (≈ 0.0168 µM) | 0.25 (≈ 0.526 µM) | 0.12 (≈ 0.252 µM) | 0.008 (≈ 0.0168 µM) | 0.008 (≈ 0.0168 µM) | 0.008 (≈ 0.0168 µM) | 0.016 (≈ 0.0336 µM) | – | – | – |
| C[C@H]1COc2c(N3CCN(C)CC3)c(F)cc3c(=O)c(C(=O)O)cn1c23 [LVX, Levofloxacin] | < 0.06 | > 8 | < 0.06 | < 0.06 | > 8 | > 8 | < 0.06 | < 0.06 | < 0.06 | > 8 | 8 (≈ 22.1 µM) | < 0.06 | 0.5 (≈ 1.38 µM) | < 0.06 | – | – | – |
| C[C@@H](O)[C@H]1C(=O)N2C(C(=O)O)=C(S[C@@H]3CN[C@H](C(=O)N(C)C)C3)[C@H](C)[C@H]12 [MEM, Meropenem] | < 0.06 | < 0.06 | < 0.06 | < 0.06 | < 0.06 | < 0.06 | < 0.06 | < 0.06 | < 0.06 | < 0.06 | < 0.06 | < 0.06 | < 0.06 | < 0.06 | – | – | – |
| CN(C)[C@@H]1C(=O)C(C(N)=O)=C(O)[C@@]2(O)C(=O)C3=C(O)c4c(O)cccc4[C@@](C)(O)[C@H]3C[C@@H]12 [TET, Tetracycline] | 32 (≈ 72 µM) | 8 (≈ 18 µM) | 4 (≈ 9 µM) | > 32 | 4 (≈ 9 µM) | > 32 | 2 (≈ 4.5 µM) | 4 (≈ 9 µM) | 8 (≈ 18 µM) | 4 (≈ 9 µM) | 4 (≈ 9 µM) | 4 (≈ 9 µM) | 4 (≈ 9 µM) | 4 (≈ 9 µM) | – | – | R |
| NC[C@H]1O[C@H](O[C@H]2[C@H](O)[C@@H](O[C@H]3O[C@H](CO)[C@@H](O)[C@H](N)[C@H]3O)[C@H](N)C[C@@H]2N)[C@H](N)C[C@@H]1O [TOB, Tobramycin] | 1 (≈ 2.14 µM) | 1 (≈ 2.14 µM) | 2 (≈ 4.28 µM) | 1 (≈ 2.14 µM) | 1 (≈ 2.14 µM) | 1 (≈ 2.14 µM) | 1 (≈ 2.14 µM) | 1 (≈ 2.14 µM) | 2 (≈ 4.28 µM) | 4 (≈ 8.56 µM) | 16 (≈ 34.2 µM) | 1 (≈ 2.14 µM) | 1 (≈ 2.14 µM) | 1 (≈ 2.14 µM) | – | – | – |
| Ampicillin/sulbactam [SAM] | 8 | > 32 | 4 | 16 | 16 | 8 | 2 | 16 | 64 | 32 | 16 | 4 | 2 | > 32 | – | – | I |
| Colistin [CST] | 0.12 | 0.25 | 0.12 | 0.12 | 0.25 | 0.25 | 0.12 | 0.12 | 0.12 | 0.5 | 0.25 | 0.5 | 0.25 | 0.25 | – | – | – |
| Gentamycin | 0.5 | 2 | 0.5 | 4 | 0.5 | 2 | 0.5 | 0.5 | 1 | 1 | > 16 | 2 | 1 | 1 | – | – | – |
| Imipenem/Cilastatin [IPM] | < 0.12 | < 0.12 | < 0.12 | < 0.12 | 0.25 | < 0.12 | < 0.12 | < 0.12 | 0.5 | < 0.12 | < 0.12 | 0.25 | < 0.12 | < 0.12 | – | – | – |
| Penicillin | 16 | > 16 | > 16 | > 16 | > 16 | > 16 | 16 | > 16 | > 16 | > 16 | > 16 | > 16 | > 16 | 16 | – | – | – |
| Piperacillin/tazobactam [TZP] | 4 | 128 | 4 | 8 | 4 | 4 | 2 | 4 | 32 | > 128 | 2 | 2 | 2 | 32 | – | – | – |
| Trimethoprim-Sulfamethoxazole [SXT] | < 0.5 | < 0.5 | < 0.5 | 4 | > 32 | > 32 | 2 | > 32 | < 0.5 | > 32 | > 32 | < 0.5 | < 0.5 | < 0.5 | – | – | R |

— patent US12203124B2, “Methods for improved rapid antimicrobial susceptibility testing” (priority 2016, dated 2025)
